Measured values published in PMC8305652, “Copper(II) Complexes Containing Natural Flavonoid Pomiferin Show Considerable In Vitro Cytotoxicity and Anti-inflammatory Effects” (International Journal of Molecular Sciences, 2021).

Tests used:
[1] = test system: A2780 cells; assay: Annexin V/propidium iodide cell death assay, flow cytometry; assay type: cell-based, human; settings: 24 h; for Annexin V +/PI + cells (late apoptotic/secondary necrotic) / Annexin V +/PI − cells (early apoptotic): A2780, 15 µM, mean of three experiments
Method: Both methods were performed according to the manufacturers’ protocols with 1 modification in the caspase induction assay, which was the use of the CellEvent^TM Caspase-3/7 Green Detection Reagent only for detection of Caspase-3/7 activation. […] After 24 h, the cells were washed once with PBS (0.1 M, pH 7.4), detached with trypsin (0.25% in ethylenediaminetetraacetic acid (EDTA), Sigma-Aldrich), resuspended in 500 µL of the culture medium and divided into 2 separate tubes, the first for apoptosis assay and the second one for caspase activation analysis. After staining with appropriate dyes, samples were analyzed on a BD FACSVerse flow cytometer (Becton Dickinson, Franklin Lakes, NJ, USA) in 3 separate experiments, while at least 10^4 events were recorded for each sample prepared in duplicate.

[2] = test system: pUC19 plasmid DNA; assay: nuclease-like activity, plasmid DNA cleavage; assay type: biochemical; settings: for plasmid DNA nicked to OC-form: 10 µM; for cleavage of plasmid DNA: 300 µM; for DNA cleavage in the presence of ROS scavengers (KI, NaN3, DMSO): 0.66 mM H2O2, scavengers equimolar to complex; for effectivity of plasmid DNA cleavage with H2O2: order 2 ≈ 4 > 1
[3] = test system: NF-κB/AP-1 in THP-1-XBlue-MD2-CD14 cells; assay: LPS-stimulated NF-κB/AP-1 activity, SEAP reporter; assay type: cell-based, human; settings: read 24 h after LPS; for inhibition of LPS-stimulated NF-κB/AP-1 activation: complexes applied at 200 nM and 50 nM, 1 h pre-treatment
Method: The activity of transcription factors NF-κB/AP-1 was evaluated using the THP-1-XBlue^TM-MD2-CD14 cell line [obtained from Invivogen (San Diego, CA, USA)], expressing an NF-κB/AP-1-inducible secreted embryonic alkaline phosphatase (SEAP) reporter gene, as was described previously. The complexes 1–5 were applied to the cells at the concentrations of 200 nM and 50 nM, pomiferin (at 200 nM), and a reference drug prednisone at 1 μM, respectively. Lipopolysaccharide (LPS) from E. coli 0111:B4 (Sigma-Aldrich) dissolved in PBS was used to trigger an inflammation-like reaction. The activity of the SEAP was determined by Quanti-Blue^TM reagent (Invivogen, San Diego, CA, USA) according to the manufacturer’s instructions 24 h after lipopolysaccharide stimulation. The activity of NF-κB/AP-1 was determined spectrophotometrically using the FLUOstar Omega microplate reader (BMG Labtech, Ortenberg, Germany) at 655 nm and compared with that of the vehicle.

[4] = test system: A2780 cells; assay: mitochondrial membrane potential, MITO-ID flow cytometry; assay type: cell-based, human; settings: A2780, 15 µM, 24 h; compared with cisplatin
Method: After 24 h, the cells were washed once with PBS (0.1 M, pH 7.4), detached with trypsin (0.25% in ethylenediaminetetraacetic acid (EDTA), Sigma-Aldrich), and resuspended in 500 µL of culture medium. Then the staining was performed using MITO-ID® Membrane potential detection kit (Enzo Life Sciences, Farmingdale, NY, USA) according to the manufacturer’s protocol and samples were measured in three independent experiments, each time in duplicates on BD FACSVerse flow cytometer (Becton Dickinson, Franklin Lakes, NJ, USA), while at least 10^4 events were recorded for each sample.

[5] = test system: colorectal adenocarcinoma (Caco-2); assay: in vitro cytotoxicity, MTT assay; assay type: cell-based, human; settings: at least three independent experiments
[6] = test system: TNF-α in differentiated THP-1 macrophages; assay: TNF-α secretion, ELISA; assay type: cell-based, human; settings: 200 nM, 1 h pre-treatment, LPS 1 µg/mL, 24 h
Method: Differentiated THP-1 macrophages (see above) were pre-treated with either 200 nM solutions of the tested complexes, or 200 nM solution of prednisone dissolved in 0.1% DMF or the vehicle (0.1% (v/v) DMF solution) for 1 h, as described previously. The concentration of TNF-α was measured using a Human TNF-α ELISA Kit (Diaclone, Besançon, France), according to the manufacturer’s manual. Each experiment was conducted in triplicate.

[7] = test system: THP-1 human monocytic leukemia cell line; assay: relative cell viability, WST-1; assay type: cell-based; settings: 24 h, six independent experiments
Method: The THP-1 human monocytic leukemia cell line was purchased from the European Collection of Cell Cultures (ECACC, Salisbury, UK). Cells were cultured in an RPMI 1640 medium containing stabilized 2 mM L-glutamine (Biosera, Nuaille, France) supplemented with the mixture of antibiotics [100 U/mL penicillin and […] (Biosera, Nuaille, France)], and 10% foetal bovine serum (FBS) (HyClone, Marlborough, MA, USA). The cells were kept in an incubator at 37 °C in an atmosphere of air containing 5% CO2 and 100% humidity.
The relative cell viability of floating monocytes THP-1 were determined after 24 h incubation in a serum-free medium with compounds 1–5 dissolved in N,N-dimethylformamide (DMF) at increasing concentrations (20–0.125 µM) by the cell proliferation reagent WST-1 (Roche, Basel, Switzerland) according to the manufacturer’s manual, as we described previously. The IC50 values were calculated from resultant viability curves by four-parameter logistic (4PL) analysis.

[8] = test system: A2780 cells; assay: cell cycle analysis by flow cytometry; assay type: cell-based, human; settings: A2780, 15 µM, 24 h
Method: Human ovarian cancer cell line A2780 (Sigma, Darmstadt, Germany) were used for this study. Cells were cultivated at 37 °C under a 5% CO2 atmosphere in an RPMI 1640 medium (Sigma Aldrich, Darmstadt, Germany) supplemented with (the final concentrations in medium): L-glutamine (2 mM), fetal bovine serum (FBS, 10%) and PenStrep (5 U penicillin, 50 µg streptomycin/mL).
After 24 h, the cells were washed once with PBS (0.1 M, pH 7.4) and cell cycle analysis was performed according to the protocol of BD Cycletest^TM Plus DNA kit (Becton Dickinson, Franklin Lakes, NJ, USA). Measurements were performed using BD FACSVerse flow cytometer (Becton Dickinson, Franklin Lakes, NJ, USA) in 3 independent experiments, each done in duplicate, while at least 5 × 10^3 events were recorded for each sample.

[9] = test system: THP-1 cells; assay: intracellular production of reactive oxygen species, DCFH2-DA; assay type: cell-based, human; settings: THP-1, 200 nM; for increase of total ROS levels: 1.5 h experiment; for ROS production, long term: 23.5 h, pyocyanin 100 μM as radical-forming control
Method: THP-1 cells were used for the determination of the potential of tested compounds to initiate the intracellular ROS production, as was described previously with some minor modifications. Cells in serum-free RPMI 1640 medium without phenol red were seeded into black 96-well plates (5 × 10^4 cells/100 µL/well). After 2 h of incubation, the cells were treated with copper(II) complexes 1–5 at a concentration of 200 nM, and pyocyanin at a final concentration of 100 μM was added into control group to trigger production of reactive oxygen species (ROS), respectively. After the incubation at 37 °C for either 1.5 h or 23.5 h, dichlorofluorescin diacetate (DCFH2-DA) (5 μg/mL) was added and cells were kept under the same conditions hereafter. Thirty minutes later, fluorometric measurement of the fluorescent product DCF was conducted using a Tecan Infinite F200 microplate reader (Tecan, Männedorf, Switzerland) with λ(ex./em.) = 485/520 nm.

[10] = water-containing medium (10% DMF), 37 °C, 1 h

Compound | Annexin V +/PI + cells (late apoptotic/secondary necrotic) [1] [%] | Annexin V +/PI − cells (early apoptotic) [1] [%] | plasmid DNA nicked to OC-form [2, 10] | cleavage of plasmid DNA [2, 10] | DNA cleavage in the presence of ROS scavengers (KI, NaN3, DMSO) [2] | effectivity of plasmid DNA cleavage with H2O2 ([2]; 0.66 mM H2O2) | inhibition of LPS-stimulated NF-κB/AP-1 activation [3] | damage of mitochondrial function (membrane potential) [4] | IC50 ([5]; mean ± SD) [µM] | secretion of TNF-α [6] | IC50 ([7]; serum-free medium) [µM] | increase of total ROS levels [9] [%] | ROS production, long term [9] | effect on LPS-stimulated NF-κB/AP-1 activity at 50 nM [3] | further results
CC(C)=CCc1c2c(c3occ(-c4ccc(O)c(O)c4)c(=O)c3c1[O-])C=CC(C)(C)O2.Cc1ccnc(-c2cc(C)ccn2)c1.O.O.O=[N+]([O-])[O-].[Cu+2] [Complex 2, (3-(3,4-dihydroxyphenyl)-8,8-dimethyl-6-(3-methylbut-2-en-1-yl)-4H,8H-benzo[1,2-b:3,4-b′]dipyran-4-one-5-olato-κ^2O4:O5)(4,4′-dimethyl-2,2′-bipyridine–κ^2N:N)copper(II) nitrate dihydrate] | 19.8 ± 0.7 | 9.2 ± 0.8 | ca. 30% | cleave the DNA completely to small fragments | not affected by the addition of the ROS scavengers | comparable with the effectivity of copper sulphate pentahydrate | able to inhibit | strong ability | 5.1 ± 1.6 | decreased its production | 7.9 ± 1.1 | 55 | pro-oxidant effect almost diminished | – | cells in G2/M phase ([8]; control 20.1 ± 0.4%): 21.9 ± 0.8%
CC(C)=CCc1c2c(c3occ(-c4ccc(O)c(O)c4)c(=O)c3c1[O-])C=CC(C)(C)O2.CO.O=[N+]([O-])[O-].[Cu+2].c1ccc(-c2ccnc3c2ccc2c(-c4ccccc4)ccnc23)cc1 [Complex 4, (3-(3,4-dihydroxyphenyl)-8,8-dimethyl-6-(3-methylbut-2-en-1-yl)-4H,8H-benzo[1,2-b:3,4-b′]dipyran-4-one-5-olato-κ^2O4:O5)(4,7-diphenyl-1,10-phenanthroline–κ^2N:N)copper(II) nitrate methanol solvate] | 93.3 ± 2.9 | – | ca. 30% | cleave the DNA completely to small fragments | not affected by the addition of the ROS scavengers | comparable with the effectivity of copper sulphate pentahydrate | able to inhibit | strong ability | 22.9 ± 12.9 | did not affect the TNF-α synthesis | 3.3 ± 1.2 | 87 | pro-oxidant effect almost diminished | – | cells in G0/G1 phase ([8]; control 58.4 ± 0.5%): 62.1 ± 1.2%
CC(C)=CCc1c2c(c3occ(-c4ccc(O)c(O)c4)c(=O)c3c1O)C=CC(C)(C)O2 [pomiferin, 3-(3,4-dihydroxyphenyl)-5-hydroxy-8,8-dimethyl-6-(3-methylbut-2-ene-1-yl)-4H,8H-benzo[1,2-b:3,4-b′]dipyran-4-one] | 49.0 ± 1.9 | 10.0 ± 0.1 | – | – | – | – | – | strong ability | – | – | – | – | did not increase the amount of ROS | slightly increased | viability at 15 µM ([1]; Homo sapiens, A2780, 15 μM, Figure 3, one out of three independent experiments, read-out: Annexin - / PI - (viable cells)): 37.1%; lowering of the portion of OC-form formed after addition of hydrogen peroxide ([2]; 0.66 mM H2O2): ca. 20%; effect on supercoiled CCC-form of plasmid DNA [2, 10]: did not affect; IC50 ([5]; Homo sapiens, Caco-2, mean ± SD): 19.8 ± 2.4 µM; IC50 ([7]; Homo sapiens, THP-1, serum-free medium): > 10 µM; cells in the S phase of the cell cycle ([8]; untreated control 21.4 ± 0.8%): 26 ± 0.9%; ROS production, short term ([9]; 1.5 h): did not increase the amount of ROS
(3-(3,4-dihydroxyphenyl)-8,8-dimethyl-6-(3-methylbut-2-en-1-yl)-4H,8H-benzo[1,2-b:3,4-b′]dipyran-4-one-5-olato-κ^2O4:O5)(dipyrido[3,2-a:2′,3′-c]phenazine–κ^2N4:N5)copper(II) nitrate methanol solvate [Complex 5] | – | – | – | – | – | – | able to inhibit | – | – | decreased its production | 3.1 ± 1.1 | – | elevated the ROS levels similarly as pyocyanin | active | –
